Data as given in patent publication US8481551B2, “Gyrase and topoisomerase IV inhibitors” (Vertex Pharmaceuticals Incorporated, priority 2011, dated 2013).
Counter-ions that a name gives are not always drawn. Like-named read-outs stand apart in the source and are kept apart here.

Key:
Haemophilus influenzae = experiment: Gyrase MIC against Gram negatives, microdilution broth method (Protocol 2); type: cell-based; settings: for MIC90 / MIC Range: Haemophilus influenzae, 55 isolates tested
Clostridium difficile = experiment: Gyrase MIC, agar dilution method (Protocol 3); type: cell-based; settings: for MIC / MIC90: Clostridioides difficile; for MIC: ATCCBAA1382, Clostridium difficile ATCC BAA-1382; for MIC90 / MIC Range: Clostridium difficile, 16 isolates tested
Escherichia coli = experiment: Gyrase MIC against Gram negatives, microdilution broth method (Protocol 2); type: cell-based; settings: for MIC90: 12 isolates tested
Enterobacter cloacae = experiment: as above; type: cell-based; settings: 12 isolates tested
[1] = tested on: Bacteroides and Parabacter spp.; experiment: Gyrase MIC, agar dilution method (Protocol 3); type: cell-based; settings: 26 isolates tested
Moraxella catarrhalis = experiment: Gyrase MIC against Gram negatives, microdilution broth method (Protocol 2); type: cell-based; settings: for MIC90 / MIC Range: Moraxella catarrhalis, 26 isolates tested
[2] = tested on: Staphlococcus epidermidis; experiment: Gyrase MIC, microdilution broth method (Protocol 1); type: cell-based, Staphylococcus epidermidis; settings: 35 isolates tested; for MIC90: Staphylococcus epidermidis
Neisseria gonorrhoeae = experiment: Gyrase MIC, agar dilution method (Protocol 3); type: cell-based; settings: for MIC90 / MIC Range: Neisseria gonorrhoeae, 13 isolates tested
Staphylococcus aureus = experiment: microbe, parasite or virus in culture; type: cell-based
Klebsiella pneumoniae = experiment: Gyrase MIC against Gram negatives, microdilution broth method (Protocol 2); type: cell-based; settings: for MIC90: Klebsiella pneumoniae, 12 isolates tested
Prevotella spp. = experiment: Gyrase MIC, agar dilution method (Protocol 3); type: cell-based; settings: 13 isolates tested
Bacteroides fragilis = experiment: Gyrase MIC, agar dilution method (Protocol 3); type: cell-based; settings: 25 isolates tested
N. asteroids = experiment: MIC determination procedure for Mycobacterium species (Protocol 4); type: cell-based; settings: N. asteroids 2039
[3] = ATCC49247, Haemophilus influenzae ATCC 49247
[4] = Haemophilus influenzae Rd0894 (AcrA-)
[5] = ATCC25922, Escherichia coli ATCC 25922
[6] = ATCC25238, Moraxella catarrhalis ATCC 25238
[7] = ATCC49143, Moraxella catarrhalis ATCC 49143
[8] = ATCC35541, Neisseria gonorrhoeae ATCC 35541
[9] = ATCC49226, Neisseria gonorrhoeae ATCC 49226
[10] = ATCC29213, Staphylococcus aureus ATCC 29213, Protocol 1, read-out: MIC
[11] = ATCC29213, Staphylococcus aureus ATCC 29213 GyrB T173I, Protocol 1
[12] = ATCC29213, Staphylococcus aureus ATCC 29213 with Mouse Serum, Protocol 1, read-out: MIC
[13] = ATCC29213, Staphylococcus aureus ATCC 29213 with Rat Serum, Protocol 1, read-out: MIC
[14] = ATCC700603, Klebsiella pneumoniae ATCC 700603
[15] = ATCCBAA1705, Klebsiella pneumoniae ATCC BAA-1705

Question: How did the MIC (Haemophilus influenzae; [3]) turn out when `CCNC(=O)Nc1nc2cc(-c3cnc(C(C)(C)O)nc3)c(F)c([C@H]3CCCO3)c2[nH]1` [Compound 23A, methanesulfonic acid salt of 1-ethyl-3-[6-fluoro-5-[2-(1-hydroxy-1-methyl-ethyl)pyrimidin-5-yl]-7-[(2R)-tetrahydrofuran-2-yl]-1H-benzimidazol-2-yl]urea] was run?
Answer: 0.5 µg/mL

Question: And the MIC (Haemophilus influenzae; [4])?
Answer: 0.041 µg/mL

Question: And the MIC90 (Haemophilus influenzae)?
Answer: 1 µg/mL

Question: What about the “MIC Range” value (Haemophilus influenzae) of the same molecule?
Answer: 0.06-2^ μg/ml

Question: What about the MIC (Clostridium difficile) of the same molecule?
Answer: 0.38 µg/mL

Question: What about the MIC90 (Clostridium difficile) of the same molecule?
Answer: 0.25 µg/mL

Question: And the “MIC Range” value (Clostridium difficile)?
Answer: 0.06-4^ μg/ml

Question: What about the MIC90 (Escherichia coli) of the same molecule?
Answer: > 8 µg/mL

Question: What about the MIC (Escherichia coli; [5]) of the same molecule?
Answer: 12 µg/mL

Question: What about the MIC (Escherichia coli; Escherichia coli AG100 WT) of the same molecule?
Answer: 4 µg/mL

Question: And the MIC (Escherichia coli; Escherichia coli AG100 tolC)?
Answer: 0.063 µg/mL

Question: What about the MIC (Escherichia coli; Escherichia coli CHE30) of the same molecule?
Answer: 8 µg/mL

Question: And the MIC (Escherichia coli; Escherichia coli CHE30 tolC)?
Answer: 0.125 µg/mL

Question: And the MIC (Escherichia coli; Escherichia coli MC4100)?
Answer: > 16 µg/mL

Question: What about the MIC (Escherichia coli; Escherichia coli MC4100 tolC) of the same molecule?
Answer: 0.25 µg/mL

Question: And the MIC90 (Enterobacter cloacae)?
Answer: > 8 µg/mL

Question: What about the MIC90 [1] of the same molecule?
Answer: 16 µg/mL

Question: What about the “MIC Range” value [1] of the same molecule?
Answer: 0.12 to 16 µg/mL

Question: And the MIC (Moraxella catarrhalis; [6])?
Answer: ≤ 0.016 µg/mL

Question: And the MIC (Moraxella catarrhalis; [7])?
Answer: ≤ 0.016 µg/mL

Question: And the MIC90 (Moraxella catarrhalis)?
Answer: 0.03 µg/mL

Question: And the “MIC Range” value (Moraxella catarrhalis)?
Answer: ≦0.004-0.03^ μg/ml

Question: And the “MIC Range” value [2]?
Answer: 0.008 to 0.03 µg/mL

Question: And the MIC90 [2]?
Answer: 0.03 µg/mL

Question: And the MIC (Neisseria gonorrhoeae; [8])?
Answer: 0.42 µg/mL

Question: And the MIC (Neisseria gonorrhoeae; [9])?
Answer: 1 µg/mL

Question: And the MIC90 (Neisseria gonorrhoeae)?
Answer: 0.25 µg/mL

Question: What about the “MIC Range” value (Neisseria gonorrhoeae) of the same molecule?
Answer: 0.12 to 0.25 µg/mL

Question: What about the MIC90 (Staphylococcus aureus; 67 isolates tested, Protocol 1) of the same molecule?
Answer: 0.03 µg/mL

Question: And the MIC (Staphylococcus aureus; [10])?
Answer: 0.021 µg/mL

Question: What about the MIC (Staphylococcus aureus; [11]) of the same molecule?
Answer: 0.3 µg/mL

Question: And the MIC (Staphylococcus aureus; [12])?
Answer: 0.5 µg/mL

Question: What about the MIC (Staphylococcus aureus; [13]) of the same molecule?
Answer: 0.18 µg/mL

Question: And the MIC (Klebsiella pneumoniae; [14])?
Answer: 16 µg/mL

Question: What about the MIC (Klebsiella pneumoniae; [15]) of the same molecule?
Answer: 12 µg/mL

Question: And the MIC90 (Klebsiella pneumoniae)?
Answer: > 8 µg/mL

Question: And the MIC90 (Prevotella spp.)?
Answer: 16 µg/mL

Question: What about the “MIC Range” value (Prevotella spp.) of the same molecule?
Answer: 0.06 to 16 µg/mL

Question: What about the MIC90 (Bacteroides fragilis) of the same molecule?
Answer: 16 µg/mL

Question: What about the “MIC Range” value (Bacteroides fragilis) of the same molecule?
Answer: 1 to 16 µg/mL

Question: And the MIC (N. asteroids)?
Answer: 1 µg/mL

Question: For `CCNC(=O)Nc1nc2cc(-c3cnc(C(C)(C)O)nc3)cc([C@H]3CCCO3)c2[nH]1` [Compound 13, methanesulfonic acid salt of 1-ethyl-3-[5-[2-(1-hydroxy-1-methyl-ethyl)pyrimidin-5-yl]-7-[(2R)-tetrahydrofuran-2-yl]-1H-benzimidazol-2-yl]urea], which MIC (Haemophilus influenzae; [3]) is on record?
Answer: 1 µg/mL

Question: And the MIC (Haemophilus influenzae; [4])?
Answer: 0.14 µg/mL

Question: What about the MIC90 (Haemophilus influenzae) of the same molecule?
Answer: 2 µg/mL

Question: What about the “MIC Range” value (Haemophilus influenzae) of the same molecule?
Answer: 0.25 to 8 µg/mL

Question: What about the MIC (Clostridium difficile) of the same molecule?
Answer: 1 µg/mL

Question: And the MIC90 (Clostridium difficile)?
Answer: 1 µg/mL

Question: What about the “MIC Range” value (Clostridium difficile) of the same molecule?
Answer: 0.5 to 16 µg/mL

Question: What about the MIC90 (Escherichia coli) of the same molecule?
Answer: > 8 µg/mL

Question: What about the MIC (Escherichia coli; [5]) of the same molecule?
Answer: 16 µg/mL

Question: What about the MIC (Escherichia coli; Escherichia coli AG100 WT) of the same molecule?
Answer: > 16 µg/mL

Question: What about the MIC (Escherichia coli; Escherichia coli AG100 tolC) of the same molecule?
Answer: 0.11 µg/mL

Question: And the MIC (Escherichia coli; Escherichia coli CHE30)?
Answer: > 16 µg/mL

Question: And the MIC (Escherichia coli; Escherichia coli CHE30 tolC)?
Answer: 0.5 µg/mL

Question: And the MIC (Escherichia coli; Escherichia coli MC4100)?
Answer: > 16 µg/mL

Question: What about the MIC (Escherichia coli; Escherichia coli MC4100 tolC) of the same molecule?
Answer: 1 µg/mL

Question: What about the MIC90 (Enterobacter cloacae) of the same molecule?
Answer: > 8 µg/mL

Question: And the MIC90 [1]?
Answer: > 16 µg/mL

Question: And the MIC (Moraxella catarrhalis; [6])?
Answer: 0.071 µg/mL

Question: And the MIC (Moraxella catarrhalis; [7])?
Answer: 0.04 µg/mL

Question: And the MIC90 (Moraxella catarrhalis)?
Answer: 0.12 µg/mL

Question: What about the “MIC Range” value (Moraxella catarrhalis) of the same molecule?
Answer: 0.015 to 0.12 µg/mL

Question: And the “MIC Range” value [2]?
Answer: 0.03 to 0.25 µg/mL

Question: What about the MIC90 [2] of the same molecule?
Answer: 0.12 µg/mL

Question: And the MIC (Neisseria gonorrhoeae; [8])?
Answer: 1.3 µg/mL

Question: What about the MIC (Neisseria gonorrhoeae; [9]) of the same molecule?
Answer: 2.3 µg/mL

Question: What about the MIC90 (Neisseria gonorrhoeae) of the same molecule?
Answer: 1 µg/mL

Question: And the “MIC Range” value (Neisseria gonorrhoeae)?
Answer: 0.5-1^ μg/ml

Question: What about the MIC90 (Staphylococcus aureus; 67 isolates tested, Protocol 1) of the same molecule?
Answer: 0.25 µg/mL

Question: What about the “MIC Range” value (Staphylococcus aureus; 67 isolates tested, Protocol 1) of the same molecule?
Answer: 0.03 to 0.5 µg/mL

Question: What about the MIC (Staphylococcus aureus; [10]) of the same molecule?
Answer: 0.13 µg/mL

Question: And the MIC (Staphylococcus aureus; [11])?
Answer: 1.29 µg/mL

Question: What about the MIC (Staphylococcus aureus; ATCC29213, Staphylococcus aureus ATCC 29213 with Human Serum, Protocol 1, read-out: MIC) of the same molecule?
Answer: 0.31 µg/mL

Question: And the MIC (Staphylococcus aureus; [12])?
Answer: 2 µg/mL

Question: And the MIC (Staphylococcus aureus; [13])?
Answer: 0.53 µg/mL

Question: What about the MIC (Klebsiella pneumoniae; [14]) of the same molecule?
Answer: > 16 µg/mL

Question: And the MIC (Klebsiella pneumoniae; [15])?
Answer: > 16 µg/mL

Question: What about the MIC90 (Klebsiella pneumoniae) of the same molecule?
Answer: > 8 µg/mL

Question: And the MIC90 (Prevotella spp.)?
Answer: > 16 µg/mL

Question: And the MIC90 (Bacteroides fragilis)?
Answer: > 16 µg/mL

Question: What about the MIC (N. asteroids) of the same molecule?
Answer: 8 µg/mL
